Literature values, collected in patent publication US11123318B2 (APR APPLIED PHARMA RESEARCH S.A., priority 2017, dated 2021).

Columns and labels:
[1] = not given; remark: listed apart in the source

absorption through the gastrointestinal tract (after oral administration): completely absorbed | time to peak plasma level (after oral administration): ≤ 1 h | administered dose eliminated as the metabolite by the renal route (in vivo): About 60% | administered dose excreted in the bile and in the faeces (in vivo): About 30% | excreted as unchanged substance by the renal route (in vivo): less than 1% | solubility in water [1]: low solubility
SMILES: O=C(O)Cc1ccccc1Nc1c(Cl)cccc1Cl [Diclofenac, 2-(2-[2,6-diclorofenilammino]phenyl) ethanoic acid]
